# Data: publication PMC7200626, “Nek7 conformational flexibility and inhibitor binding probed through protein engineering of the R-spine” (Biochemical Journal, 2020)
# What was measured:
# [1] = molecular target: T1, Nek7^SRS (Homo sapiens, UniProt Q8TDX7, L180F/L86H/Y97F); experiment: X-ray co-crystal structure, […] Å; IC50 from LabChip EZ Reader kinase assay; format: biochemical
# T1 construct: Nek7 strong R-spine mutant, C-terminal non-cleavable His6-tag
# [2] = molecular target: T2, Nek7^WT (Homo sapiens, UniProt Q8TDX7); experiment: as above; format: biochemical
# T2 construct: wild-type Nek7, C-terminal non-cleavable His6-tag
# T2 sequence (Q8TDX7 whole entry): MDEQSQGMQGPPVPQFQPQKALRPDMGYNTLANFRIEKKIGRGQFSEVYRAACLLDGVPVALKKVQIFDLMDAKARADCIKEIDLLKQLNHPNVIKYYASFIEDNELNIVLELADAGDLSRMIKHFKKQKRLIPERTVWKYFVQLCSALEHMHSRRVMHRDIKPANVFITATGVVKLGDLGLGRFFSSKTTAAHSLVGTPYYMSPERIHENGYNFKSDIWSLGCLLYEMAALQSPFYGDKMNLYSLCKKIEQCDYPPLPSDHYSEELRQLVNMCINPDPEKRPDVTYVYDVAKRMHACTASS
# T1 sequence (Q8TDX7 whole entry L86H/Y97F/L180F): as the sequence (Q8TDX7 whole entry) above, with L86H, Y97F, L180F counted along it
structure (smiles),measurement,setting,value
CN(C)CCCNS(=O)(=O)c1cccc(Nc2nc(OCC3CCCCC3)c3nc[nH]c3n2)c1 [compound 51],IC50,[1],40.1 µM
same,IC50,[2],79 µM
